Columns and labels:
D(2) dopamine receptor = D(2) dopamine receptor (Homo sapiens, UniProt P14416); assay: Binding affinity to dopamine D2 receptor
D(1A) dopamine receptor = D(1A) dopamine receptor (Homo sapiens, UniProt P21728); assay: Binding affinity to dopamine D1 receptor
D(1B) dopamine receptor = D(1B) dopamine receptor (Homo sapiens, UniProt P21918); assay: Binding affinity to dopamine D5 receptor
D(4) dopamine receptor = biological target: T1, D(4) dopamine receptor (Homo sapiens, UniProt P21917); assay: Binding affinity to dopamine D4 receptor
T1 sequence (P21917 whole entry): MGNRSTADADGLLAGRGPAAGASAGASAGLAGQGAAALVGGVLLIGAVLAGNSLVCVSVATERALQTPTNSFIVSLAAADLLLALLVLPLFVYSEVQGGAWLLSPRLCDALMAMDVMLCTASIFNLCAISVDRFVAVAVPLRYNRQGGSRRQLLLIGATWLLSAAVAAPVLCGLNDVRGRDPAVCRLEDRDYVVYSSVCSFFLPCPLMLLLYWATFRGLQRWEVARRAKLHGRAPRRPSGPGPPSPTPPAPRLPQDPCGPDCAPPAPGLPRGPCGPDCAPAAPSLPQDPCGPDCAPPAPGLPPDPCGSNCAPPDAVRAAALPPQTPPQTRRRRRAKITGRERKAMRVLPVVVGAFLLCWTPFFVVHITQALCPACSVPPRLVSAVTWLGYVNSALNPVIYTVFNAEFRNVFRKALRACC

[1] = AUC in rat; assay type: ADME, organism-based; conditions: plasma
[2] = Oral bioavailability in rat; assay type: ADME, organism-based; conditions: in vivo
[3] = Selectivity ratio, Ki for dopamine D1 receptor to Ki for dopamine D2 receptor

D(1A) dopamine receptor, sequence (P21728 whole entry): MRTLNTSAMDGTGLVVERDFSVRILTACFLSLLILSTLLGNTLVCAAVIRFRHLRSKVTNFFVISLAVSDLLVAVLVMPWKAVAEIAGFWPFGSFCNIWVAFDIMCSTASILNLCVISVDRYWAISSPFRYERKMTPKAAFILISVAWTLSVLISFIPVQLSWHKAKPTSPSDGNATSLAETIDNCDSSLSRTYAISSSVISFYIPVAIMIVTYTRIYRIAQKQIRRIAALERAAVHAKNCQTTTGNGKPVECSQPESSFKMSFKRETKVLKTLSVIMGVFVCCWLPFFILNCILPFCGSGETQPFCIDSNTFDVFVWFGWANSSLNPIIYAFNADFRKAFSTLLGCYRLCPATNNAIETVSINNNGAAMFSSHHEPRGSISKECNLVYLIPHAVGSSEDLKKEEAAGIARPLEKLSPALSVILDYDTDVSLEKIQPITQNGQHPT
D(1B) dopamine receptor, sequence (P21918 whole entry): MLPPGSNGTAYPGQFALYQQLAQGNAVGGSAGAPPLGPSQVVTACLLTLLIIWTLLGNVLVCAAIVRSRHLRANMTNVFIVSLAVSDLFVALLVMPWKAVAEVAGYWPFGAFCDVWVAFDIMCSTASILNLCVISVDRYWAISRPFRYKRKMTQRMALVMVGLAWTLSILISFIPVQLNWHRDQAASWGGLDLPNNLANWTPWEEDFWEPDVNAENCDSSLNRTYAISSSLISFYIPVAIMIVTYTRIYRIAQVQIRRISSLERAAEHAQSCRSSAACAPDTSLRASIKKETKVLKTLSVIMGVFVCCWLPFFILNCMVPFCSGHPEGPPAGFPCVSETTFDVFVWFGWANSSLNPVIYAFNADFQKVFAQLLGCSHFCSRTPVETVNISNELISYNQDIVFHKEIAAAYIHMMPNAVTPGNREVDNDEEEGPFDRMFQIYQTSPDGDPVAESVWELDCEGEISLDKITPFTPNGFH
D(2) dopamine receptor, sequence (P14416 whole entry): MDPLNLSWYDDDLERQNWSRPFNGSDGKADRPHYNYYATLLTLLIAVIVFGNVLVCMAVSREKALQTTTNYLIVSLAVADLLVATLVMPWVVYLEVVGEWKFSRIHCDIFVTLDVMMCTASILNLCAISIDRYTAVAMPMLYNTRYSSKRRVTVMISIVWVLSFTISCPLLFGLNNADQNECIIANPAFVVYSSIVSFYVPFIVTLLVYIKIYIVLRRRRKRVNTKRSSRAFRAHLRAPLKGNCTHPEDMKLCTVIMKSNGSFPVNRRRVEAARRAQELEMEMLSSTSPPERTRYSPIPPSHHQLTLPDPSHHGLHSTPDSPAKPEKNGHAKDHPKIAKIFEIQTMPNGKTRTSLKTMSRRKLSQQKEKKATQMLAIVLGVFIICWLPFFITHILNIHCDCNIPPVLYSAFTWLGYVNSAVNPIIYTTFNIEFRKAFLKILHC

CN1CCc2cc(Cl)c(O)cc2[C@H]2c3cccc(NC(=O)Nc4c(Cl)cccc4Cl)c3CC[C@@H]21
Ki (D(2) dopamine receptor): 566 nM
Ki (D(1A) dopamine receptor): 7.1 nM

CN1CCc2cc(Cl)c(O)cc2[C@H]2c3ccc(NC(=O)Nc4c(Cl)cccc4Cl)cc3CC[C@@H]21
Ki (D(2) dopamine receptor): 1090 nM
Ki (D(1A) dopamine receptor): 0.7 nM

CCOC(=O)Nc1ccc2c(c1)CC[C@H]1[C@H]2c2cc(O)c(Cl)cc2CCN1C
Ki (D(1B) dopamine receptor): 3.3 nM
Ki (D(2) dopamine receptor): 3900 nM
Ki (D(4) dopamine receptor): > 10000 nM
Ki (D(1A) dopamine receptor): 1.4 nM

CCS(=O)(=O)Nc1cccc2c1CC[C@H]1[C@H]2c2cc(O)c(Cl)cc2CCN1C
Ki (D(2) dopamine receptor): 618 nM
Ki (D(1A) dopamine receptor): 5.8 nM

CN1CCc2cc(Cl)c(O)cc2[C@H]2c3cccc(NC(=O)C4CC4)c3CC[C@@H]21
Ki (D(2) dopamine receptor): 2140 nM
Ki (D(1A) dopamine receptor): 5.7 nM

CCC(=O)Nc1cccc2c1CC[C@H]1[C@H]2c2cc(O)c(Cl)cc2CCN1C
Ki (D(2) dopamine receptor): 500 nM
Ki (D(1A) dopamine receptor): 2.3 nM

CN1CCc2cc(Cl)c(O)cc2[C@H]2c3ccc(NC(=O)C4CC4)cc3CC[C@@H]21
Ki (D(2) dopamine receptor): > 10000 nM
Ki (D(1A) dopamine receptor): 2.3 nM

CN1CCc2cc(Cl)c(O)cc2[C@H]2c3ccc(N)cc3CC[C@@H]21
Ki (D(1B) dopamine receptor): 8.3 nM
Ki (D(2) dopamine receptor): 5400 nM
Ki (D(4) dopamine receptor): > 10000 nM
Ki (D(1A) dopamine receptor): 7 nM

CN1CCc2cc(Cl)c(O)cc2[C@H]2c3ccccc3CC[C@@H]21 [ECOPIPAM]
AUC [1]: 156 ng·h/mL
bioavailability [2]: 0.6%

CC(=O)N(Cc1ccc([C@H]2CN(C)CCc3cc(Cl)c(O)cc32)cc1)C1CCC1
Ki (D(1B) dopamine receptor): 13 nM
Ki (D(2) dopamine receptor): 159 nM
Ki (D(4) dopamine receptor): > 10000 nM
Ki (D(1A) dopamine receptor): 0.2 nM

CN1CCc2cc(Cl)c(O)cc2[C@@H](c2ccc(CN(C3CCC3)S(C)(=O)=O)cc2)C1
Ki (D(1B) dopamine receptor): 5.9 nM
Ki (D(2) dopamine receptor): 2000 nM
Ki (D(4) dopamine receptor): > 10000 nM
Ki (D(1A) dopamine receptor): 0.5 nM

CCNC(=O)Nc1cccc2c1CC[C@H]1[C@H]2c2cc(O)c(Cl)cc2CCN1C
Ki (D(2) dopamine receptor): 900 nM
Ki (D(1A) dopamine receptor): 2.4 nM

CN1CCc2cc(Cl)c(O)cc2[C@@H](c2ccc(CN(Cc3ccccc3)c3ccc(F)cc3F)cc2)C1
Ki (D(2) dopamine receptor): 552 nM
Ki (D(1A) dopamine receptor): 0.7 nM

CN1CCc2cc(Cl)c(O)cc2[C@@H](c2ccc(CN(C)S(C)(=O)=O)cc2)C1
Ki (D(2) dopamine receptor): 6000 nM
Ki (D(1A) dopamine receptor): 0.5 nM

CN1CCc2cc(Cl)c(O)cc2[C@@H](c2ccc(CNC3CCC3)cc2)C1
Ki (D(1B) dopamine receptor): 3.9 nM
Ki (D(2) dopamine receptor): 2000 nM
Ki (D(4) dopamine receptor): > 10000 nM

CCNC(=O)Nc1ccc2c(c1)CC[C@H]1[C@H]2c2cc(O)c(Cl)cc2CCN1C
Ki (D(1B) dopamine receptor): 7.1 nM
Ki (D(2) dopamine receptor): 6000 nM
Ki (D(4) dopamine receptor): > 10000 nM
Ki (D(1A) dopamine receptor): 1.5 nM

CN1CCc2cc(Cl)c(O)cc2[C@H]2c3cccc(NS(C)(=O)=O)c3CC[C@@H]21
Ki (D(2) dopamine receptor): 1000 nM
Ki (D(1A) dopamine receptor): 4.7 nM

CCS(=O)(=O)Nc1ccc2c(c1)CC[C@H]1[C@H]2c2cc(O)c(Cl)cc2CCN1C
Ki (D(1B) dopamine receptor): 5.6 nM
Ki (D(2) dopamine receptor): 3300 nM
Ki (D(4) dopamine receptor): > 10000 nM
Ki (D(1A) dopamine receptor): 0.7 nM

CN1CCc2cc(Cl)c(O)cc2[C@H]2c3ccc(NS(C)(=O)=O)cc3CC[C@@H]21
Ki (D(1B) dopamine receptor): 5.8 nM
Ki (D(2) dopamine receptor): 3000 nM
Ki (D(4) dopamine receptor): > 10000 nM
AUC [1]: 2490 ng·h/mL
bioavailability [2]: 29%
Ki (D(1A) dopamine receptor): 0.5 nM

CN1CCc2cc(Cl)c(O)cc2[C@H]2c3cccc(N)c3CC[C@@H]21
Ki (D(1B) dopamine receptor): 7 nM
Ki (D(2) dopamine receptor): 2100 nM
Ki (D(4) dopamine receptor): > 10000 nM
Ki (D(1A) dopamine receptor): 2.8 nM

CN1CCc2cc(Cl)c(O)cc2[C@@H](c2ccc(CNc3ccccc3)cc2)C1
Ki (D(2) dopamine receptor): 2000 nM
Ki (D(1A) dopamine receptor): 2 nM

CN1CCc2cc(Cl)c(O)cc2[C@H]2c3cc(CN4CCCCC4)ccc3CC[C@@H]21
Ki (D(2) dopamine receptor): 26 nM
Ratio Ki [3]: 8.7
Ki (D(1A) dopamine receptor): 225 nM

CN1CCc2cc(Cl)c(O)cc2[C@H]2c3cc(CN4CCN(c5ccccn5)CC4)ccc3CC[C@@H]21
Ki (D(2) dopamine receptor): 1.3 nM
Ratio Ki [3]: 117
Ki (D(1A) dopamine receptor): 152 nM

CN1CCc2cc(Cl)c(O)cc2[C@@H](c2ccc(CN(C)S(=O)(=O)c3ccccc3)cc2)C1
Ki (D(1B) dopamine receptor): 1.2 nM
Ki (D(2) dopamine receptor): 331 nM
Ki (D(4) dopamine receptor): 4330 nM
Ki (D(1A) dopamine receptor): 0.6 nM

— ChEMBL document CHEMBL1156835, “Discovery of new SCH 39166 analogs as potent and selective dopamine D1 receptor antagonists” (Bioorg Med Chem Lett, 2010)
